The subject of assay [1] is RIPK1 (Receptor-interacting serine/threonine-protein kinase 1). The assay is described as follows: TEAR1 target engagement immunoassay in monkey whole blood and tissues after IV dosing. More on the design: species or system Macaca fascicularis.
The target of assay [2] is T1, RIPK1 (Receptor-interacting serine/threonine-protein kinase 1) (Homo sapiens, UniProt Q13546).
T1 sequence (Q13546 1-671): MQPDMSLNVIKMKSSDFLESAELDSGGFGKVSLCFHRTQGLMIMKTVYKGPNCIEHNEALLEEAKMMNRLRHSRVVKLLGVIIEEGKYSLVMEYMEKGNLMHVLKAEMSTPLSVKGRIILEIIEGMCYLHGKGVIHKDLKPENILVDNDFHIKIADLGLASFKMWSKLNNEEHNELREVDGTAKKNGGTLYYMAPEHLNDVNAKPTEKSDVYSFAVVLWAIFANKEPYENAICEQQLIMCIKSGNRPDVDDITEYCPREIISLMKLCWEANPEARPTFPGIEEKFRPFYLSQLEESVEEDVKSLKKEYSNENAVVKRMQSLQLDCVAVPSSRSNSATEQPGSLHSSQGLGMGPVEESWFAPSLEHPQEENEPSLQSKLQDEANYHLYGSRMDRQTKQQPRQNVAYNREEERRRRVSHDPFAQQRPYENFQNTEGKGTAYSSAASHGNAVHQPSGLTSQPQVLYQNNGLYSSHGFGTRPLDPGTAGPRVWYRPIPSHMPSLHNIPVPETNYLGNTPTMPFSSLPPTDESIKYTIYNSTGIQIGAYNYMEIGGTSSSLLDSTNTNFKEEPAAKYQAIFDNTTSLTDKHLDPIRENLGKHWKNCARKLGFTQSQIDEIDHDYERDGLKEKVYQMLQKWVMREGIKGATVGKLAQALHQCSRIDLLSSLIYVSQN
The experiment in a line: TEAR1 target engagement immunoassay (FREE-RIPK1/TOTAL-RIPK1) in HT29 cells. The class given is cell-based.

We go through 1 substance from article PMC5723705, “Identification of an antibody‐based immunoassay for measuring direct target binding of RIPK1 inhibitors in cells and tissues” (Pharmacology Research & Perspectives, 2017).

As for GSK3011253 [GSK'253], the IC50 was found to be 3.1 ng/mL in assay [1] and 0.5 nM in assay [2].
